Assay results from ChEMBL document CHEMBL4665836, “Overcoming β-Lactam resistance in Pseudomonas aeruginosa using non-canonical tobramycin-based antibiotic adjuvants” (2020).

Assays:
Type in all cases: functional
[1] = system: Pseudomonas aeruginosa; assay: Potentiation of aztreonam-induced antibacterial activity against carbapenem-resistant Pseudomonas aeruginosa 107092 clinical isolate assessed as fold reduction in aztreonam MIC at 8 uM in presence of beta-lactamase inhibitor, avi-bactam
[2] = system: Pseudomonas aeruginosa; assay: Potentiation of ceftazidime-induced antibacterial activity against carbapenem-resistant Pseudomonas aeruginosa 109084 clinical isolate assessed as fold reduction in ceftazidime MIC at 8 uM in presence of beta-lactamase inhibitor, avi-bactam
[3] = system: Pseudomonas aeruginosa; assay: Potentiation of aztreonam-induced antibacterial activity against carbapenem-resistant Pseudomonas aeruginosa 101885 clinical isolate assessed as aztreonam MIC at 8 uM by checkerboard assay (reference value: 16 ug/ml)
[4] = system: Pseudomonas aeruginosa; assay: Potentiation of ceftazidime-induced antibacterial activity against carbapenem-resistant Pseudomonas aeruginosa 88949 clinical isolate assessed as ceftazidime MIC at 8 uM by checkerboard assay (reference value: 64 ug/ml)
[5] = system: Pseudomonas aeruginosa; assay: Potentiation of aztreonam-induced antibacterial activity against carbapenem-resistant Pseudomonas aeruginosa 88949 clinical isolate assessed as fold reduction in aztreonam MIC at 8 uM in presence of beta-lactamase inhibitor, avi-bactam
[6] = system: Pseudomonas aeruginosa; assay: Potentiation of aztreonam-induced antibacterial activity against wild type Pseudomonas aeruginosa PAO1 assessed as fold reduction in aztreonam MIC at 8 uM
[7] = system: Pseudomonas aeruginosa; assay: Potentiation of imipenem-induced antibacterial activity against carbapenem-resistant Pseudomonas aeruginosa 259-96918 clinical isolate expressing MBL assessed as imipenem MIC at 8 uM by checkerboard assay (reference value: 64 ug/ml)
[8] = system: Pseudomonas aeruginosa; assay: Potentiation of ceftazidime-induced antibacterial activity against carbapenem-resistant Pseudomonas aeruginosa 107092 clinical isolate assessed as fold reduction in ceftazidime MIC at 8 uM in presence of beta-lactamase inhibitor, avi-bactam
[9] = system: Pseudomonas aeruginosa; assay: Potentiation of imipenem-induced antibacterial activity against carbapenem-resistant Pseudomonas aeruginosa PAO750 harboring mexAB-oprM/mexCD-oprJ/mexEF-oprN/mexJK/mexXY/opmH efflux deficient mutant assessed as imipenem MIC at 8 uM by checkerboard assay (reference value: 4 ug/ml)
[10] = system: Pseudomonas aeruginosa; assay: Potentiation of ceftazidime-induced antibacterial activity against carbapenem and colistin-resistant Pseudomonas aeruginosa 101243 clinical isolate assessed as ceftazidime MIC at 8 uM by checkerboard assay (reference value: 64 ug/ml)
[11] = system: Pseudomonas aeruginosa; assay: Potentiation of ceftazidime-induced antibacterial activity against carbapenem-resistant Pseudomonas aeruginosa 86052 clinical isolate assessed as ceftazidime MIC at 8 uM by checkerboard assay (reference value: 64 ug/ml)
[12] = system: Pseudomonas aeruginosa; assay: Potentiation of imipenem-induced antibacterial activity against carbapenem and colistin-resistant Pseudomonas aeruginosa 114228 clinical isolate assessed as imipenem MIC at 8 uM by checkerboard assay (reference value: 8 ug/ml)
[13] = system: Pseudomonas aeruginosa; assay: Potentiation of imipenem-induced antibacterial activity against carbapenem-resistant Pseudomonas aeruginosa 107092 clinical isolate assessed as fold reduction in imipenem MIC at 8 uM in presence of beta-lactamase inhibitor, rele-bactam
[14] = system: Pseudomonas aeruginosa; assay: Potentiation of ceftazidime-induced antibacterial activity against carbapenem-resistant Pseudomonas aeruginosa 88949 clinical isolate assessed as fold reduction in ceftazidime MIC at 8 uM in presence of beta-lactamase inhibitor, avi-bactam
[15] = system: Pseudomonas aeruginosa; assay: Potentiation of aztreonam-induced antibacterial activity against carbapenem-resistant Pseudomonas aeruginosa 264-104354 clinical isolate assessed as aztreonam MIC at 8 uM by checkerboard assay (reference value: 32 ug/ml)
[16] = system: Pseudomonas aeruginosa; assay: Antibacterial activity against Pseudomonas aeruginosa PAO750 harboring mexAB-oprM/mexCD-oprJ/mexEF-oprN/mexJK/mexXY/opmH efflux deficient mutant
[17] = system: Pseudomonas aeruginosa; assay: Potentiation of aztreonam-induced antibacterial activity against carbapenem-resistant Pseudomonas aeruginosa PAO200 harboring mexAB-oprM efflux deficient mutant assessed as aztreonam MIC at 8 uM by checkerboard assay (reference value: 0.25 ug/ml)
[18] = system: Pseudomonas aeruginosa; assay: Potentiation of imipenem-induced antibacterial activity against carbapenem-resistant Pseudomonas aeruginosa 100036 clinical isolate assessed as imipenem MIC at 8 uM by checkerboard assay (reference value: 8 ug/ml)
[19] = system: Pseudomonas aeruginosa; assay: Potentiation of ceftazidime-induced antibacterial activity against carbapenem-resistant Pseudomonas aeruginosa 259-96918 clinical isolate expressing metallo-beta-lactamase assessed as ceftazidime MIC at 8 uM by checkerboard assay (reference value: 512 ug/ml)
[20] = system: Pseudomonas aeruginosa; assay: Potentiation of ceftazidime-induced antibacterial activity against carbapenem and colistin-resistant Pseudomonas aeruginosa 91433 clinical isolate assessed as ceftazidime MIC at 8 uM by checkerboard assay (reference value: 4 ug/ml)
[21] = system: Pseudomonas aeruginosa; assay: Potentiation of ceftazidime-induced antibacterial activity against carbapenem-resistant Pseudomonas aeruginosa 262-101856 clinical isolate assessed as ceftazidime MIC at 8 uM by checkerboard assay (reference value: 16 ug/ml)
[22] = system: Pseudomonas aeruginosa; assay: Potentiation of aztreonam-induced antibacterial activity against carbapenem-resistant Pseudomonas aeruginosa 108590 clinical isolate assessed as aztreonam MIC at 8 uM by checkerboard assay (reference value: 32 ug/ml)
[23] = system: Pseudomonas aeruginosa; assay: Potentiation of piperacillin-induced antibacterial activity against wild type Pseudomonas aeruginosa PAO1 assessed as piperacillin MIC at 8 uM by checkerboard assay (reference value: 8 ug/ml)
[24] = system: Pseudomonas aeruginosa; assay: Potentiation of imipenem-induced antibacterial activity against wild type Pseudomonas aeruginosa PAO1 assessed as fold reduction in imipenem MIC at 8 uM
[25] = system: Pseudomonas aeruginosa; assay: Potentiation of imipenem-induced antibacterial activity against carbapenem-resistant Pseudomonas aeruginosa 108590 clinical isolate assessed as imipenem MIC at 8 uM by checkerboard assay (reference value: 16 ug/ml)
[26] = system: Pseudomonas aeruginosa; assay: Potentiation of ceftazidime-induced antibacterial activity against wild type Pseudomonas aeruginosa PAO1 assessed as ceftazidime MIC at 8 uM by checkerboard assay (reference value: 2 ug/ml)
[27] = system: Pseudomonas aeruginosa; assay: Potentiation of imipenem-induced antibacterial activity against carbapenem-resistant Pseudomonas aeruginosa 108590 clinical isolate assessed as fold reduction in imipenem MIC at 8 uM in presence of beta-lactamase inhibitor, rele-bactam
[28] = system: Pseudomonas aeruginosa; assay: Potentiation of ceftazidime-induced antibacterial activity against carbapenem-resistant Pseudomonas aeruginosa 86052 clinical isolate assessed as fold reduction in ceftazidime MIC at 8 uM in presence of beta-lactamase inhibitor, avi-bactam
[29] = system: Pseudomonas aeruginosa; assay: Potentiation of ceftazidime-induced antibacterial activity against wild type Pseudomonas aeruginosa PAO1 assessed as fold reduction in ceftazidime MIC at 8 uM
[30] = system: Pseudomonas aeruginosa; assay: Potentiation of imipenem-induced antibacterial activity against carbapenem-resistant Pseudomonas aeruginosa 109084 clinical isolate assessed as imipenem MIC at 8 uM by checkerboard assay (reference value: 16 ug/ml)
[31] = system: Pseudomonas aeruginosa; assay: Potentiation of aztreonam-induced antibacterial activity against carbapenem-resistant Pseudomonas aeruginosa 100036 clinical isolate assessed as aztreonam MIC at 8 uM by checkerboard assay (reference value: 16 ug/ml)
[32] = system: Pseudomonas aeruginosa; assay: Potentiation of ceftazidime-induced antibacterial activity against carbapenem-resistant Pseudomonas aeruginosa 108590 clinical isolate assessed as ceftazidime MIC at 8 uM by checkerboard assay (reference value: 32 ug/ml)

SMILES | fold change (FC) [1] | fold change (FC) [2] | MIC [3] [µg/mL] | MIC [4] [µg/mL] | fold change (FC) [5] | fold change (FC) [6] | MIC [7] [µg/mL] | fold change (FC) [8] | MIC [9] [µg/mL] | MIC [10] [µg/mL] | MIC [11] [µg/mL] | MIC [12] [µg/mL] | fold change (FC) [13] | fold change (FC) [14] | MIC [15] [µg/mL] | MIC [16] [µg/mL] | MIC [17] [µg/mL] | MIC [18] [µg/mL] | MIC [19] [µg/mL] | MIC [20] [µg/mL] | also measured
Cl.Cl.Cl.Cl.Cl.Cl.NC[C@H]1O[C@H](O[C@H]2[C@H](OCCCCCCCCCCCCN3CCN(c4cc5c(cc4F)c(=O)c(C(=O)O)cn5C4CC4)CC3)[C@@H](O[C@H]3O[C@H](CO)[C@@H](O)[C@H](N)[C@H]3O)[C@H](N)C[C@@H]2N)[C@H](N)C[C@@H]1O | 16 | 16 | 1 | 32 | 16 | 2 | 16 | 16 | 0.5 | 8 | 32 | 2 | 16 | 16 | 8 | 2 | 0.03 | 2 | 64 | 2 | MIC [21]: 4 µg/mL; MIC [22]: 0.5 µg/mL; MIC [23]: 2 µg/mL; fold change (FC) [24]: 2; MIC [25]: 0.25 µg/mL; MIC [26]: 0.25 µg/mL; fold change (FC) [27]: 16; fold change (FC) [28]: 16; fold change (FC) [29]: 2; MIC [30]: 8 µg/mL; MIC [31]: 4 µg/mL; MIC [32]: 0.5 µg/mL
NC[C@H]1O[C@H](O[C@H]2[C@H](OCCCCc3cn(CCCCO[C@@H]4[C@@H](O[C@H]5O[C@H](CO)[C@@H](O)[C@H](N)[C@H]5O)[C@H](N)C[C@H](N)[C@H]4O[C@H]4O[C@H](CN)[C@@H](O)C[C@H]4N)nn3)[C@@H](O[C@H]3O[C@H](CO)[C@@H](O)[C@H](N)[C@H]3O)[C@H](N)C[C@@H]2N)[C@H](N)C[C@@H]1O.O=C(O)C(F)(F)F.O=C(O)C(F)(F)F.O=C(O)C(F)(F)F.O=C(O)C(F)(F)F.O=C(O)C(F)(F)F.O=C(O)C(F)(F)F.O=C(O)C(F)(F)F.O=C(O)C(F)(F)F.O=C(O)C(F)(F)F.O=C(O)C(F)(F)F | 16 | 16 | 4 | 16 | 16 | 2 | 32 | 16 | 1 | 64 | 64 | 0.5 | 16 | 16 | 8 | > 128 | 0.03 | 4 | 128 | 1 | MIC [21]: 2 µg/mL; MIC [22]: 8 µg/mL; MIC [23]: 0.5 µg/mL; fold change (FC) [24]: 2; MIC [25]: 4 µg/mL; MIC [26]: 0.25 µg/mL; fold change (FC) [27]: 16; fold change (FC) [28]: 16; fold change (FC) [29]: 2; MIC [30]: 8 µg/mL; MIC [31]: 2 µg/mL; MIC [32]: 8 µg/mL
